Test results: article PMC6173183 (International Journal of Nanomedicine, 2018)

Tested on: in vitro BBB model (HBMEC)
Assay: BBB penetration in vitro: transport ratio across HBMEC transwell model
Format: in vitro ADME, human
Conditions: 240 minutes, FITC 10 μmol⋅L^−1

fluorescein isothiocyanate [FITC]
BBB transportation ratio: 4.53%
